Columns and labels:
[1] = system: liver (LV); test: Whole organ transcriptome (GeneChip microarray) of liver 6 h after adjuvant administration: sDEGs, hierarchical clustering; assay type: in vivo, C57BL/6 mice; conditions: hierarchical clustering, liver; note: key: G1 (interferon signaling); G2 (metabolism of lipids and lipoproteins); G3 (response to stress); G4 (response to wounding); G5 (phosphate-containing compound metabolic process); G6 (phagosome)
[2] = system: preferentially upregulated genes in LV, SP, LN; test: Z-score-based differential gene expression analysis (adjuvant group- or adjuvant-associated genes, 40 module mapping, TargetMine annotation); assay type: in vivo, C57BL/6 mice; conditions: ID, LV
Description: Each sample's FC value was converted into a z-score on a gene basis by using the entire data set for each organ. The Z-score of the triplicates of interest were summed for each adjuvant. For example, the three sample z-score in the LV sample following cdiGMP administration was summed on a gene-by-gene basis, after which the summed scores of >3 genes were selected as relatively preferentially expressed genes in the LV after cdiGMP administration. The following threshold was applied for selections. […] G2^LV: ALM_IP(z>1) & bCD(z>1) & ENDCN(z>1) & FCA(z>1). […] G4^LV: MALP2s(z>3). […] G2^SP: ENDCN_x2+ENDCN_x3(z>2) & ALM_IP(z>3) & bCD(z>3). […] G4^SP: ADX_ID_x2+ADX_ID_x3(z>2) & ADX_IP(z>3) & MALP2s(z>3). […] G2^LN: bCD(z>3) & FCA(z>3). […] G5^LN: K3(z>1.5) & K3SPG_x1+K3SPG_x2(z>1) & D35_x1+D35_x3(z>1). G6^LN: AddaVax(z>3).

SMILES: CCOCc1nc2c(N)nc3ccccc3c2n1CC(C)(C)O [R848, 4-amino-2-(ethoxymethyl)-a,a-dimethyl-1H-imidazo[4,5-c]quinoline-1-ethanol]
- adjuvant group (cluster) in LV [1]: G1
- Adar 1425405_a_at (Group G1, Modules 20) ([2]; sample x1): 1.63
- Adar 1434268_at (Group G1, Modules 20) ([2]; sample x1): 2.77
- Ddx58 1436562_at (Group G1, Modules 20) ([2]; sample x1): 2.64
- Ddx58 1456890_at (Group G1, Modules 20) ([2]; sample x1): 2.42
- Eif2ak2 1422005_at (Group G1, Modules 20) ([2]; sample x1): 2.43
- G3bp2 1421323_a_at (Group G1, Modules 20) ([2]; sample x1): 2.13
- Gm9706///Isg15 1431591_s_at (Group G1, Modules 20) ([2]; sample x1): 2.55
- H2-T10///H2-T22///H2-T9 1449875_s_at (Group G1, Modules 20) ([2]; sample x1): 2.05
- Ifih1 1426276_at (Group G1, Modules 20) ([2]; sample x1): 3.25
- Ifit1 1450783_at (Group G1, Modules 20) ([2]; sample x1): 1.54
- Ifit3 1449025_at (Group G1, Modules 20) ([2]; sample x1): 2.19
- Irf7 1417244_a_at (Group G1, Modules 20) ([2]; sample x1): 2.27
- Irgm1 1418825_at (Group G1, Modules 20) ([2]; sample x1): 2.87
- Mndal 1426906_at (Group G1, Modules 20) ([2]; sample x1): 1.65
- Pml 1448757_at (Group G1, Modules 20) ([2]; sample x1): 1.77
- Pml 1456103_at (Group G1, Modules 20) ([2]; sample x1): 3.66
- Rnf213 1455500_at (Group G1, Modules 20) ([2]; sample x1): 1.29
- Rsad2 1436058_at (Group G1, Modules 20) ([2]; sample x1): 1.97
- Shisa5 1423986_a_at (Group G1, Modules 20) ([2]; sample x1): 2.93
- Shisa5 1437503_a_at (Group G1, Modules 20) ([2]; sample x1): 3.09
- Stat1 1450033_a_at (Group G1, Modules 20) ([2]; sample x1): 1.4
- Stat1 1450034_at (Group G1, Modules 20) ([2]; sample x1): 2.37
- Tdrd7 1426716_at (Group G1, Modules 20) ([2]; sample x1): 1.79
- Tor1aip2 1418115_s_at (Group G1, Modules 20) ([2]; sample x1): 1.53
- Tor1aip2 1418116_at (Group G1, Modules 20) ([2]; sample x1): 1.45
- Tor1aip2 1435526_at (Group G1, Modules 20) ([2]; sample x1): 3.12
- Trim12a 1437432_a_at (Group G1, Modules 20) ([2]; sample x1): 2.13
- Uba7 1426970_a_at (Group G1, Modules 20) ([2]; sample x1): 2.64
- Adar 1425405_a_at (Group G1, Modules 20) ([2]; sample x2): 1.17
- Adar 1434268_at (Group G1, Modules 20) ([2]; sample x2): 1.8
- Ddx58 1436562_at (Group G1, Modules 20) ([2]; sample x2): 2.33
- Ddx58 1456890_at (Group G1, Modules 20) ([2]; sample x2): 1.34
- Eif2ak2 1422005_at (Group G1, Modules 20) ([2]; sample x2): 1.56
- G3bp2 1421323_a_at (Group G1, Modules 20) ([2]; sample x2): 1.21
- Gm9706///Isg15 1431591_s_at (Group G1, Modules 20) ([2]; sample x2): 2.1
- H2-T10///H2-T22///H2-T9 1449875_s_at (Group G1, Modules 20) ([2]; sample x2): 2.01
- Ifih1 1426276_at (Group G1, Modules 20) ([2]; sample x2): 2.46
- Ifit1 1450783_at (Group G1, Modules 20) ([2]; sample x2): 1.14
- Ifit3 1449025_at (Group G1, Modules 20) ([2]; sample x2): 1.76
- Irf7 1417244_a_at (Group G1, Modules 20) ([2]; sample x2): 2.39
- Irgm1 1418825_at (Group G1, Modules 20) ([2]; sample x2): 2.12
- Mndal 1426906_at (Group G1, Modules 20) ([2]; sample x2): 1.42
- Pml 1448757_at (Group G1, Modules 20) ([2]; sample x2): 1.53
- Pml 1456103_at (Group G1, Modules 20) ([2]; sample x2): 1.62
- Rnf213 1455500_at (Group G1, Modules 20) ([2]; sample x2): 1.03
- Rsad2 1436058_at (Group G1, Modules 20) ([2]; sample x2): 1.77
- Shisa5 1423986_a_at (Group G1, Modules 20) ([2]; sample x2): 2.32
- Shisa5 1437503_a_at (Group G1, Modules 20) ([2]; sample x2): 2.43
- Stat1 1450033_a_at (Group G1, Modules 20) ([2]; sample x2): 1.2
- Stat1 1450034_at (Group G1, Modules 20) ([2]; sample x2): 1.92
- Tdrd7 1426716_at (Group G1, Modules 20) ([2]; sample x2): 1.21
- Tor1aip2 1418115_s_at (Group G1, Modules 20) ([2]; sample x2): 1.08
- Tor1aip2 1418116_at (Group G1, Modules 20) ([2]; sample x2): 1.22
- Tor1aip2 1435526_at (Group G1, Modules 20) ([2]; sample x2): 2.18
- Trim12a 1437432_a_at (Group G1, Modules 20) ([2]; sample x2): 1.94
- Uba7 1426970_a_at (Group G1, Modules 20) ([2]; sample x2): 2.42
- Adar 1425405_a_at (Group G1, Modules 20) ([2]; sample x3): 0.96
- Adar 1434268_at (Group G1, Modules 20) ([2]; sample x3): 1
- Ddx58 1436562_at (Group G1, Modules 20) ([2]; sample x3): 1.6
- Ddx58 1456890_at (Group G1, Modules 20) ([2]; sample x3): 0.95
- Eif2ak2 1422005_at (Group G1, Modules 20) ([2]; sample x3): 1.09
- G3bp2 1421323_a_at (Group G1, Modules 20) ([2]; sample x3): 1.04
- Gm9706///Isg15 1431591_s_at (Group G1, Modules 20) ([2]; sample x3): 1.95
- H2-T10///H2-T22///H2-T9 1449875_s_at (Group G1, Modules 20) ([2]; sample x3): 1.77
- Ifih1 1426276_at (Group G1, Modules 20) ([2]; sample x3): 2.36
- Ifit1 1450783_at (Group G1, Modules 20) ([2]; sample x3): 0.63
- Ifit3 1449025_at (Group G1, Modules 20) ([2]; sample x3): 1.49
- Irf7 1417244_a_at (Group G1, Modules 20) ([2]; sample x3): 2.37
- Irgm1 1418825_at (Group G1, Modules 20) ([2]; sample x3): 2.02
- Mndal 1426906_at (Group G1, Modules 20) ([2]; sample x3): 1.21
- Pml 1448757_at (Group G1, Modules 20) ([2]; sample x3): 0.66
- Pml 1456103_at (Group G1, Modules 20) ([2]; sample x3): 1.29
- Rnf213 1455500_at (Group G1, Modules 20) ([2]; sample x3): 0.72
- Rsad2 1436058_at (Group G1, Modules 20) ([2]; sample x3): 0.67
- Shisa5 1423986_a_at (Group G1, Modules 20) ([2]; sample x3): 2.23
- Shisa5 1437503_a_at (Group G1, Modules 20) ([2]; sample x3): 2.49
- Stat1 1450033_a_at (Group G1, Modules 20) ([2]; sample x3): 1.05
- Stat1 1450034_at (Group G1, Modules 20) ([2]; sample x3): 1.52
- Tdrd7 1426716_at (Group G1, Modules 20) ([2]; sample x3): 0.94
- Tor1aip2 1418115_s_at (Group G1, Modules 20) ([2]; sample x3): 0.54
- Tor1aip2 1418116_at (Group G1, Modules 20) ([2]; sample x3): 0.89
- Tor1aip2 1435526_at (Group G1, Modules 20) ([2]; sample x3): 1.22
- Trim12a 1437432_a_at (Group G1, Modules 20) ([2]; sample x3): 1.68
- Uba7 1426970_a_at (Group G1, Modules 20) ([2]; sample x3): 2.27
